Source: US9221756B2, “Pyrrole derivatives” (priority 2011, dated 2015)
Where two headings read alike, the source gives them in different places.

Legend:
pneumolysin = pneumolysin (Streptococcus pneumoniae serotype 2, UniProt Q04IN8); test: Inhibition of the haemolytic activity of pneumolysin (sheep erythrocytes); assay type: cell-based; conditions: class symbols of Table 1
[1] = Conversion of prodrug derivatives to active inhibitors in mouse plasma; assay type: in vitro ADME; conditions: 37° C., 10 μM start, prodrug remaining; for [ ] (μM) t0 min. Prodrug: 0 min; for [ ] (μM) t15 min. Prodrug: 15 min; for [ ] (μM) t30 min. Prodrug: 30 min; for [ ] (μM) t60 min. Prodrug: 60 min; for [ ] (μM) t120 min. Prodrug: 120 min
Protocol: The samples were then analysed by LC-MS/MS to obtain the amount of active compound appearing and prodrug derivative remaining over time. The mouse plasma assay system is considered to be a good model for human behaviour. Nevertheless data obtained in a human plasma assay system was obtained in some cases.
Prodrug derivatives were assessed in the mouse and human plasma stability assay at a concentration of 10 μM. Test compounds were diluted in DMSO to a final stock concentration of 10 mM. For the purpose of the assay, the stocks prepared were further diluted in DMSO to a concentration of 400 μM and […] were added to 195 μl of mouse or human plasma (pH 7.4) and then incubated at 37° C. The final concentration of DMSO in the plate was 2.5% (v/v). Reactions were terminated at 0, 15, 30, 60 and 120 min after incubation by adding 400 μl of acetonitrile containing 0.55 μM metoprolol and 1% (v/v) formic acid. The plate was then centrifuged at 3000 rpm, for 45 min, at 4° C. 80 μl of supernatant were transferred into a conical bottom 96 well glass coated plate. 40 μl of water were added prior to analysis for prodrug derivative and active species by LC-MS/MS. This assay was performed by a contract research organisation, Cyprotex Discovery Limited, UK, at the request of the inventors at Leicester.
(1) The active compound was quantified using a 6 point calibration curve prepared in deactivated mouse and human plasma. (2) The percentage of parent compound remaining at each time point relative to 0 min sample was calculated from LC-MS/MS peak area ratios (compound peak area/internal standard peak area). This percentage was then used to determine the concentration of the parent compound at each time point in reference to the starting concentration (10 μM) at time 0 min.

[2] = inhibition of pneumolysin-induced haemolysis of sheep erythrocytes, read-out: IC50
[3] = IC50, inhibition of pneumolysin-induced haemolysis of sheep erythrocytes

Sequence of pneumolysin (Q04IN8 whole entry): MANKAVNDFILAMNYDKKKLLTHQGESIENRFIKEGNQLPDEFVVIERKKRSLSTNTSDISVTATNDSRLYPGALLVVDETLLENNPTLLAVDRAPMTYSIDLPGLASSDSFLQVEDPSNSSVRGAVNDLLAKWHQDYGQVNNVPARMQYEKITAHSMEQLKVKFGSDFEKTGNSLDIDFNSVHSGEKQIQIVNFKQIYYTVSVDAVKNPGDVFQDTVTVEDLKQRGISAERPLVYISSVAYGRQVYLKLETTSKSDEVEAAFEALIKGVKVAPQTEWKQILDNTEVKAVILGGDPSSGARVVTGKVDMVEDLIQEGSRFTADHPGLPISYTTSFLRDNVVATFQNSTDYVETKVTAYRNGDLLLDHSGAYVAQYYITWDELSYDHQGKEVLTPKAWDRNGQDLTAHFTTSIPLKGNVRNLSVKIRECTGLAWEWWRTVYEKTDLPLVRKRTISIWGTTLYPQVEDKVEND

Row | SMILES | IC50 (pneumolysin; [3]) [µM] | further results
1 | CCOC(=O)c1c(OP(=O)(OCC)OCC)c(O)c(C(=O)N(C)C)n1-c1ccc(OC)cc1 [UL1-094, ethyl 3-((diethoxyphosphoryl)oxy)-5-(dimethylcarbamoyl)-4-hydroxy-1-(4-methoxyphenyl)-1H-pyrrole-2-carboxylate] | – | IC50 (pneumolysin; [2]): 20 to 60 µM; [ ] (μM) t0 min. Prodrug [1]: 10 µM; [ ] (μM) t15 min. Prodrug [1]: 9.99 µM; [ ] (μM) t30 min. Prodrug [1]: 9.22 µM; [ ] (μM) t60 min. Prodrug [1]: 8.78 µM; [ ] (μM) t120 min. Prodrug [1]: 8.49 µM
2 | CCOC(=O)c1c(OC(=O)N2CCN(C)CC2)c(OC(=O)N2CCN(C)CC2)c(C(=O)N(C)C)n1-c1ccc(OC)cc1 [UL1-064, 2-(dimethylcarbamoyl)-5-(ethoxycarbonyl)-1-(4-methoxyphenyl)-1H-pyrrole-3,4-diyl bis(4-methylpiperazine-1-carboxylate)] | – | IC50 (pneumolysin; [2]): > 60 µM; [ ] (μM) t0 min. Prodrug [1]: 10 µM; [ ] (μM) t15 min. Prodrug [1]: 3.10 µM; [ ] (μM) t30 min. Prodrug [1]: 7.00 µM; [ ] (μM) t60 min. Prodrug [1]: 5.00 µM; [ ] (μM) t120 min. Prodrug [1]: 2.20 µM
3 | CCOC(=O)c1c(OC(=O)C(C)(C)C)c(OC(=O)C(C)(C)C)c(C(=O)N(C)C)n1-c1ccc(OC)cc1 [UL1-068, 2-(dimethylcarbamoyl)-5-(ethoxycarbonyl)-1-(4-methoxyphenyl)-1H-pyrrole-3,4-diyl bis(2,2-dimethylpropanoate)] | – | IC50 (pneumolysin; inhibition of pneumolysin-induced haemolysis of sheep erythrocytes): > 60 µM; [ ] (μM) t0 min. Prodrug [1]: 10 µM; [ ] (μM) t15 min. Prodrug [1]: 3.02 µM; [ ] (μM) t30 min. Prodrug [1]: 1.00 µM; [ ] (μM) t60 min. Prodrug [1]: 0.136 µM; [ ] (μM) t120 min. Prodrug [1]: 0 µM
4 | CCOC(=O)c1c(O)c(OC(=O)N(C)C)c(C(=O)N(C)C)n1-c1ccc(OC)cc1 [UL1-066, ethyl 5-(dimethylcarbamoyl)-4-((dimethylcarbamoyl)oxy)-3-hydroxy-1-(4-methoxyphenyl)-1H-pyrrole-2-carboxylate] | – | IC50 (pneumolysin; [2]): < 10 µM; [ ] (μM) t0 min. Prodrug [1]: 10 µM; [ ] (μM) t15 min. Prodrug [1]: 9.90 µM; [ ] (μM) t30 min. Prodrug [1]: 10.00 µM; [ ] (μM) t60 min. Prodrug [1]: 9.78 µM; [ ] (μM) t120 min. Prodrug [1]: 9.50 µM
5 | COc1ccc(-n2c(C(=O)N3CCN(C(=O)OC(C)(C)C)CC3)c(OCc3ccccc3)c(OCc3ccccc3)c2C(=O)N2CCN(C(=O)OC(C)(C)C)CC2)cc1 [UL1-048, di-tert-butyl 4,4′-(3,4-bis(benzyloxy)-1-(4-methoxyphenyl)-1H-pyrrole-2,5-dicarbonyl)bis(piperazine-1-carboxylate)] | < 10 | –
6 | CCN(CC)C(=O)c1c(O)c(O)c(C(=O)N(CC)CC)n1-c1ccc(F)cc1 [UL1-001, N^2,N^2,N^5,N^5-tetraethyl-1-(4-fluorophenyl)-3,4-dihydroxy-1H-pyrrole-2,5-dicarboxamide] | < 10 | –
7 | CCOC(=O)c1c(OCc2ccccc2)c(OCc2ccccc2)c(-c2ccccn2)n1-c1ccc(OC)cc1 [UL1-082, ethyl 3,4-bis(benzyloxy)-1-(4-methoxyphenyl)-5-(pyridin-2-yl)-1H-pyrrole-2-carboxylate] | 10 to 20 | –
8 | COc1ccc(-n2c(C(=O)N3CCN(C(=O)OC(C)(C)C)CC3)c(O)c(O)c2C(=O)N2CCN(C(=O)OC(C)(C)C)CC2)cc1 [UL1-015, di-tert-butyl 4,4′-(3,4-dihydroxy-1-(4-methoxyphenyl)-1H-pyrrole-2,5-dicarbonyl)bis(piperazine-1-carboxylate)] | < 10 | –
9 | CCOc1ccc(-n2c(C(=O)N(CC)CC)c(O)c(O)c2C(=O)N(CC)CC)cc1 [UL1-002, 1-(4-ethoxyphenyl)-N^2,N^2,N^5,N^5-tetraethyl-3,4-dihydroxy-1H-pyrrole-2,5-dicarboxamide] | < 10 | –
10 | COc1ccc(-n2c(C(=O)OC(C)(C)C)c(O)c(O)c2C(=O)OC(C)(C)C)cc1 [UL2-022, di-tert-butyl 3,4-dihydroxy-1-(4-methoxyphenyl)-1H-pyrrole-2,5-dicarboxylate] | < 10 | –
11 | CCOC(=O)c1c(O)c(O)c(C(=O)OCC)n1-c1ccc(Oc2ccccc2)cc1 [UL2-007, diethyl 3,4-dihydroxy-1-(4-phenoxyphenyl)-1H-pyrrole-2,5-dicarboxylate] | < 10 | –
12 | CCOC(=O)c1c(OCc2ccccc2)c(OCc2ccccc2)c(-c2nnc(CC)o2)n1-c1ccc(OC)cc1 [UL1-088, ethyl 3,4-bis(benzyloxy)-5-(5-ethyl-1,3,4-oxadiazol-2-yl)-1-(4-methoxyphenyl)-1H-pyrrole-2-carboxylate] | 10 to 20 | –
13 | COc1ccc(-n2c(C(=O)N(C)C)c(O)c(O)c2P(C)(C)=O)cc1 [UL1-125, 5-(dimethylphosphoryl)-3,4-dihydroxy-1-(4-methoxyphenyl)-N,N-dimethyl-1H-pyrrole-2-carboxamide] | < 10 | –
14 | CCOC(=O)c1c(OCc2ccccc2)c(OCc2ccccc2)c(-c2ccncc2)n1-c1ccc(OC)cc1 [UL1-084, ethyl 3,4-bis(benzyloxy)-1-(4-methoxyphenyl)-5-(pyridin-4-yl)-1H-pyrrole-2-carboxylate] | < 10 | –
15 | CC(C)N(C(=O)c1c(O)c(O)c(C(=O)N(C(C)C)C(C)C)n1-c1ccc(F)cc1)C(C)C [UL1-017, 1-(4-fluorophenyl)-3,4-dihydroxy-N^2,N^2,N^5,N^5-tetraisopropyl-1H-pyrrole-2,5-dicarboxamide] | < 10 | –
16 | COc1ccc(-n2c(C#N)c(O)c(O)c2C(=O)N(C)C)cc1 [UL1-031, 5-cyano-3,4-dihydroxy-1-(4-methoxyphenyl)-N,N-dimethyl-1H-pyrrole-2-carboxamide] | < 10 | –
17 | CCOC(=O)c1c(O)c(O)c(C(=O)N(C)C)n1-c1ccc(OCCCP(=O)(O)O)cc1 [UL1-107, (3-(4-(2-(dimethylcarbamoyl)-5-(ethoxycarbonyl)-3,4-dihydroxy-1H-pyrrol-1-yl)phenoxy)propyl)phosphonic acid] | < 10 | –
18 | COc1ccc(-n2c(C(=O)N(C)C)c(OCc3ccccc3)c(OCc3ccccc3)c2C(=O)N(C)C)cc1 [UL1-047, 3,4-bis(benzyloxy)-1-(4-methoxyphenyl)-N^2,N^2,N^5,N^5-tetramethyl-1H-pyrrole-2,5-dicarboxamide] | 10 to 20 | –
19 | COc1ccc(-n2c(C(=O)OC(C)C)c(OC(=O)C(C)(C)COCCOCCOP(=O)(O)O)c(OC(=O)C(C)(C)COCCOCCOP(=O)(O)O)c2C(=O)N(C)C)cc1 [UL1-122, 2-(dimethylcarbamoyl)-5-(isopropoxycarbonyl)-1-(4-methoxyphenyl)-1H-pyrrole-3,4-diyl bis(2,2-dimethyl-3-(2-(2-(phosphonooxy)ethoxy)ethoxy)propanoate)] | < 10 | –
20 | COc1ccccc1-n1c(C(=O)N(C)C)c(O)c(O)c1C(=O)N(C)C [UL1-019, 3,4-dihydroxy-1-(2-methoxyphenyl)-N^2,N^2,N^5,N^5-tetramethyl-1H-pyrrole-2,5-dicarboxamide] | < 10 | –
21 | CCOC(=O)c1c(O)c(O)c(C(=O)OCC)n1-c1ccc(OC)cc1OC [UL2-015, diethyl 1-(2,4-dimethoxyphenyl)-3,4-dihydroxy-1H-pyrrole-2,5-dicarboxylate] | < 10 | –
22 | CCOC(=O)c1c(O)c(O)c(C(=O)N(C)C)n1-c1ccc(OC)c(I)c1 [UL1-043, ethyl 5-(dimethylcarbamoyl)-3,4-dihydroxy-1-(3-iodo-4-methoxyphenyl)-1H-pyrrole-2-carboxylate] | < 10 | –
23 | COc1ccc(-n2c(C(=O)OC(C)(C)C)c(O)c(O)c2C(=O)N(C)C)cc1 [UL1-036, tert-butyl 5-(dimethylcarbamoyl)-3,4-dihydroxy-1-(4-methoxyphenyl)-1H-pyrrole-2-carboxylate] | < 10 | –
24 | COc1ccc(-n2c(C(=O)N3CCN(C(C)=O)CC3)c(OCc3ccccc3)c(OCc3ccccc3)c2C(=O)N2CCN(C(C)=O)CC2)cc1 [UL1-059, 1,1′-(4,4′-(3,4-bis(benzyloxy)-1-(4-methoxyphenyl)-1H-pyrrole-2,5-dicarbonyl)bis(piperazine-4,1-diyl))diethanone] | 20 to 60 | –
25 | CCOC(=O)c1c(O)c(O)c(C(=O)OCC)n1-c1ccc(CC)cc1 [UL2-009, diethyl 1-(4-ethylphenyl)-3,4-dihydroxy-1H-pyrrole-2,5-dicarboxylate] | < 10 | –
26 | CCOC(=O)c1c(O)c(OCCO)c(C(=O)OCC)n1-c1ccc(F)cc1 [UL2-025, diethyl 1-(4-fluorophenyl)-3-hydroxy-4-(2-hydroxyethoxy)-1H-pyrrole-2,5-dicarboxylate] | 20 to 60 | –
27 | CCOC(=O)c1c(O)c(O)c(C(=O)OCC)n1-c1ccc(C(C)C)cc1 [UL2-006, diethyl 3,4-dihydroxy-1-(4-isopropylphenyl)-1H-pyrrole-2,5-dicarboxylate] | < 10 | –
28 | CCNC(=O)c1c(OCc2ccccc2)c(OCc2ccccc2)c(C(=O)NCC)n1-c1ccc(OC)cc1 [UL1-074, 3,4-bis(benzyloxy)-N2,N5-diethyl-1-(4-methoxyphenyl)-1H-pyrrole-2,5-dicarboxamide] | 20 to 60 | –
